Measured values reported in patent EP1099438A2, “Use of APO B secretion/MTP inhibitors” (Pfizer Products Inc., priority 1999, dated 2001).

System: food intake
Assay: food intake reduction determination protocol in dogs
Format: in vivo
Conditions: male beagles, oral gavage, dosing solution 0.5 mg/mL at 1 mL per kg body weight, single dose on Days 0 and 5-12; 24 hour food consumption versus amount consumed prior to Day 0
From the text: Healthy, young adult (1-2 years of age) male beagles (Marshall Farms, North Rose, New York, NY 14516) weighing 11.45 - 12.45 kg at the start of the treatment period were employed as test subjects. The animals were housed individually in standard caging meeting or exceeding the USDA regulations (U.S. Department of Agriculture, Animal Welfare, Final Rules. 9 C.F.R. Parts 1-3, 1995).
The test compound was provided as a water-soluble powder. The dosing solution, administered by oral gavage, was provided employing a 0.025 M citrate buffer (approx. pH = 3) prepared using anhydrous citric acid (0.4 g/mL) and anhydrous sodium citrate (0.1 g/mL) as the test vehicle. The dosing solution was prepared at 0.5 mg/mL activity so that 1 mL was delivered per kg body weight. Following a fourteen day acclimation period (designated as Days -14 to -1), during which time the test animals were evaluated for certain criteria including determination of body weight and physical examinations, a sixteen day evaluation study was effected.
The study consisted of one group of animals containing five dogs. On Days 0 and 5-12, each dog received the dosing solution administered as a single dose at Time 0 on each dosing day via a feeding tube. […]
Reduction in food intake was quantitated by weighing individual food bowls each day prior to feeding and at the end of each 24 hour consumption period. […]

| Structure (SMILES) | reduced food intake in dogs |
| --- | --- |
| CC(=O)NCCN1CCc2cc(NC(=O)c3ccccc3-c3ccc(C(F)(F)F)cc3)ccc2C1 [4'-trifluoromethyl-biphenyl-2-carboxylic acid-[2-(2-acetylaminoethyl)-1,2,3,4-tetrahydroisoquinolin-6-yl amide] | 58% |
| CCCCN1CCc2cc(NC(=O)c3ccccc3-c3ccc(C(F)(F)F)cc3)ccc2C1 [4'-trifluoromethyl-biphenyl-2-carboxylic acid-(2-butyl-1,2,3,4-tetrahydroisoquinolin-6-yl)-amide] | 30% |
